Measured values reported in publication PMC9574934, “Targeting the Phosphatidylserine-Immune Checkpoint with a Small-Molecule Maytansinoid Conjugate” (Journal of Medicinal Chemistry, 2022).

Key:
[1] = Plasma incubation and tumor homogenate cleavage of conjugate; format: in vitro ADME; details: glutathione transferase inhibitor added to tumor homogenate
Source text: Figure 3 In vivo targeting ability, plasma stability, and in vivo biodistribution of modified zinc dipicolylamine conjugates in subcutaneous HCC1806 tumor xenografts. […] (B) In vivo detection of PS-expression in the HCC1806 tumor xenograft model. Representative IVIS images of new Zn11-794 fluorescence probe in mice.

[2] = tested on: MIA PaCa-2 human pancreatic cells; test: MTS cell viability assay, MIA PaCa-2; format: cell-based; details: 72 h incubation, read-out: MIA PaCa2 IC50
Procedure: (§1) The MTS assay was performed to examine cell viability.

[3] = tested on: HCC 1806 human triple-negative breast cancer cell; test: MTS cell viability assay, HCC1806; format: cell-based; details: 72 h incubation
Procedure: as §1

[4] = tested on: Detroit 551 normal skin fibroblast; test: MTS cell viability assay, Detroit 551; format: cell-based; details: Homo sapiens, 72 h incubation
Procedure: as §1

[5] = tested on: PS-coated liposomes (DOPC/ DOPS (3:1,v/v)); test: Biacore SPR binding assay with PS-containing liposomes; details: for dissociation koff: zinc-coordinated, DOPC/DOPS (3:1) liposomes, 25 °C, DOPC reference
Procedure: Phospholipids, 1,2-dioleoyl-sn-glycero-3-phosphocholine (DOPC), and 1,2-dioleoyl-sn-glycero-3-[phospho-L-serine] (DOPS) were obtained from Avanti Polar Lipids (Alabaster, AL) in chloroform solutions. These stock solutions were combined to the indicated ratios. To a round-bottom flask, a 0.4 mL aliquot of lipid solution at concentration of 10 mg/mL was added and evaporated under a N2 gas stream to furnish a thin lipid film. Rehydration of lipid films was carried out in PBS buffer for at least 1 h at room temperature. Resulting suspensions were extruded through a 100 nm polycarbonate filter using an Avanti MiniExtruder following the manufacturer’s instructions. Zeta potential (ZP) and liposomes’ size distributions were recorded by dynamic light scattering (DLS) and microelectrophoresis using a Zetasizer Nano ZS instrument. Then, using a Biacore T200 biosensor equipped with an L1 sensor chip (GE Healthcare), binding kinetics between the conjugates and liposome were recorded at 25 °C. Preconditioning of new sensor chips was performed with running buffer (5% DMSO in phosphate-buffered saline (PBS) with final pH 7.4) and two consecutive 30 s pulses of 2:3 v/v 50 mM HCl/isopropanol at a flow rate of 30 μL/min. A fresh liposome capture plate was prepared for each binding cycle. In PBS buffer, liposomes were diluted to 0.5–1 mM and captured to saturation (30–150 s) across isolated flow cells at 2–5 μL/min. In a single injection, conjugates were first diluted with running buffer and injected over lipid surfaces. At flow rate of 30 μL/min, association and dissociation phases were examined for 60s. At the end of each binding cycle, the surface was regenerated by injecting 2:3 v/v 50 mM HCl/isopropanol and equilibrated with running buffer before the next injection of the test compound. […]
Figure S3. […] Zinc-coordinated dipicolylamine 24 and modified analog 11 were analyzed across a two-fold concentration series descending from 31.3 μM. The association was monitored for 1 min, and the dissociation time was 1 min. […]

Row | dissociation koff [5] [s^–1] | Compound | IC50 [2] [nM] | IC50 [3] [nM] | IC50 [4] [nM] | other results
1 | – | C=C(CC)C(=O)c1ccc(OCC(=O)O)c(Cl)c1Cl [ethacrynic acid, reference compound] | – | – | – | effect on abundance of intact conjugate 40a in tumor homogenate [1]: significantly rescued
2 | – | COc1cc2cc(c1Cl)N(C)C(=O)C[C@H](OC(=O)[C@H](C)N(C)C(=O)CCS)[C@]1(C)O[C@H]1[C@H](C)[C@@H]1C[C@@](O)(NC(=O)O1)[C@H](OC)/C=C/C=C(\C)C2 [Compound 14, DM1] | 74 ± 27 | 8 ± 3 | > 20000 | –
3 | 0.0113 | NCCCCOc1cc(CN(Cc2ccccn2)Cc2ccccn2)cc(CN(Cc2ccccn2)Cc2ccccn2)c1 [Compound 24, reference compound] | – | – | – | –
4 | – | COc1cc2cc(c1Cl)N(C)C(=O)C[C@H](OC(=O)[C@H](C)N(C)C(=O)CCC(C)(C)S)[C@]1(C)O[C@H]1[C@H](C)[C@@H]1C[C@@](O)(NC(=O)O1)[C@H](OC)/C=C/C=C(\C)C2 [Compound 16, DM4] | 30 ± 3 | 4 | > 20000 | –
5 | 0.00358 | CCCCCC(=O)Nc1cccc(CN(Cc2cc(CN(Cc3ccccn3)Cc3cccc(NC(=O)CCCCC)n3)cc(OCCCCN)c2)Cc2ccccn2)n1 [Compound 11] | – | – | – | improvement of dissociation koff over compound 24 ([5]; PS-containing liposomes): 3 fold
